Consider 12 molecules from ChEMBL document CHEMBL1134874, “Identification of a novel partial inhibitor of dopamine transporter among 4-substituted 2-phenylquinazolines” (Bioorg Med Chem Lett, 2002).

A value given as a limit tells only on which side of the number the result lay.

The target of assay [1] is Sodium-dependent dopamine transporter (Rattus norvegicus, UniProt P23977). As to the kind of experiment: Displacement of [125I]RTI-55 from Dopamine transporter of rat caudate membranes. It counts as cell membranes, Membrane. (In general: Displacement assays read how much labelled ligand stays bound in the presence of the test substance.)
For assay [2], the target named is Sodium-dependent serotonin transporter (Rattus norvegicus, UniProt P31652). As to the kind of experiment: Inhibition of [125I]RTI-55 binding to Serotonin transporter of rat caudate membranes. It counts as cell membranes, Membrane.
Sodium-dependent serotonin transporter, sequence (P31652 whole entry): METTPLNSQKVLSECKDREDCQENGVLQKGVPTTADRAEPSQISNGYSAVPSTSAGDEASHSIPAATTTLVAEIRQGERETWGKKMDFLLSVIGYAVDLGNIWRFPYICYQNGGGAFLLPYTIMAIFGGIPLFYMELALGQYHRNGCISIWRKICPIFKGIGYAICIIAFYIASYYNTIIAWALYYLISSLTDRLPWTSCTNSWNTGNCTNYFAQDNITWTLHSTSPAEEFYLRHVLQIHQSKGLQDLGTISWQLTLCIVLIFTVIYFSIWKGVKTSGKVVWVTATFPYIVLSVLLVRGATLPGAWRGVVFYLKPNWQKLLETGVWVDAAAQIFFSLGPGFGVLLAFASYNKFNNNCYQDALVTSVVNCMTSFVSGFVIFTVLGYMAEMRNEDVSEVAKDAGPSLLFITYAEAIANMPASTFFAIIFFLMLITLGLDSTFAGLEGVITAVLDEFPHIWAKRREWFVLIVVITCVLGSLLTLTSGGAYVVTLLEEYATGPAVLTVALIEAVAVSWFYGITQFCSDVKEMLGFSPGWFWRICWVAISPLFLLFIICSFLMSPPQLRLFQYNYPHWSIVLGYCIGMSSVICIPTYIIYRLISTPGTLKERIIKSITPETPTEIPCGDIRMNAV

Sodium-dependent dopamine transporter, sequence (P23977 whole entry): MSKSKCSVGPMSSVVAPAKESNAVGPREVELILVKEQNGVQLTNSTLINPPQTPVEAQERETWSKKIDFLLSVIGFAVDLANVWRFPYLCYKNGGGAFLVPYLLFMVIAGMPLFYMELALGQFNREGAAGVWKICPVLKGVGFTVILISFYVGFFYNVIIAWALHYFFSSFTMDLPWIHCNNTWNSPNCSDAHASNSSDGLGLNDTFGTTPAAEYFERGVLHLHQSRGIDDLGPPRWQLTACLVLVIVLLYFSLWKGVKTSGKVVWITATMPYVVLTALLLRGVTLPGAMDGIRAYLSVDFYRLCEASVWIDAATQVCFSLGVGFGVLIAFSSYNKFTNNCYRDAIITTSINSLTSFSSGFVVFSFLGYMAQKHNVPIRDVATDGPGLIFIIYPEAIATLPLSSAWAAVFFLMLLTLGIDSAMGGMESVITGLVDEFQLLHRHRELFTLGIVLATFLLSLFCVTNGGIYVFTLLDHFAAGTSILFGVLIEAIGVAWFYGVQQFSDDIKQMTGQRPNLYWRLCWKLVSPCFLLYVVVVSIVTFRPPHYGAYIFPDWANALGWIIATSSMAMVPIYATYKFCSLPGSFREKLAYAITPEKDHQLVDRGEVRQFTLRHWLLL

For orientation: Ki means a dissociation constant, usually derived from enzyme kinetics or from competition with a known ligand. For `CN(C)CCCNc1nc(-c2ccccc2)nc2ccccc12`, the Ki in assay [1] and in assay [2] was above 10 µM in each case.

Take `c1ccc(-c2nc(NC(c3ccccc3)c3ccccc3)c3ccccc3n2)cc1`: the Ki is 0.53 µM in assay [1] and above 10 µM in assay [2].

As for `c1ccc(-c2nc(NCC(c3ccccc3)c3ccccc3)c3ccccc3n2)cc1`, the figures for the Ki in assay [1] and in assay [2] were 5.4 µM and above 10 µM, respectively.

As to `c1ccc(-c2nc(SC(c3ccccc3)c3ccccc3)c3ccccc3n2)cc1`, the Ki in assay [1] and in assay [2] was above 10 µM each time.

As to `CN1CCC(Oc2nc(-c3ccccc3)nc3ccccc23)CC1`, the inhibitory constant (Ki) in assay [1] was 9.1 µM; in assay [2], above 10 µM.

For the molecule `CN(C)CCCOc1nc(-c2ccccc2)nc2ccccc12`, the Ki in assay [2] is above 10 µM.

`CN(C)CCCSc1nc(-c2ccccc2)nc2ccccc12`: the Ki turned out to be 6.1 µM in assay [1] and 9.6 µM in assay [2].

With `CN1C2CCC1CC(Oc1nc(-c3ccccc3)nc3ccccc13)C2` (stereo not drawn), the inhibition constant (Ki) in assay [1] and in assay [2] was 5.1 µM in each case.

As for `C[C@@H](Nc1nc(-c2ccccc2)nc2ccccc12)c1ccccc1`, the Ki was 6.1 µM in assay [1] and above 10 µM in assay [2].

Take `c1ccc(CNc2nc(-c3ccccc3)nc3ccccc23)cc1`: the figures for the Ki in assay [1] and in assay [2] were 7.9 µM and above 10 µM, respectively.

For the molecule `C[C@H](Nc1nc(-c2ccccc2)nc2ccccc12)c1ccccc1`, the Ki in assay [1] was 1.8 µM; in assay [2], above 10 µM.

Consider `c1ccc(-c2nc(NCCC(c3ccccc3)c3ccccc3)c3ccccc3n2)cc1`, for which the Ki in assay [1] and in assay [2] was above 10 µM throughout.
